Values of other authors as cited in article PMC6311893, “Computational prediction of plasma protein binding of cyclic peptides from small molecule experimental data using sparse modeling techniques” (BMC Bioinformatics, 2018).
Where a name gives a salt, the structure may show the parent alone. Read-outs that look alike come from different tables or passages of the source. Non-standard residues stand in square brackets, D forms with d. Residues, ends and D or L forms follow the SMILES beside them. dPhe(4-Cl) = N[C@H](Cc1ccc(Cl)cc1)C(=O)O; d2Nal = N[C@H](Cc1ccc2ccccc2c1)C(=O)O; dCit = NC(=O)NCCC[C@@H](N)C(=O)O; d3Pal = N[C@H](Cc1cccnc1)C(=O)O

System: plasma protein
Conditions: cited from earlier work
[1] = fraction bound to plasma protein, small molecule dataset, sheet 1-SM (Set Dte = test, Dtr = training), ref Ingle et al.
[2] = fraction bound to plasma protein, small molecule dataset, sheet 1-SM, ref Ingle et al.
[3] = fraction bound to plasma protein, small molecule dataset, sheet 1-SM, Set Dtr, ref Ingle et al.

NCC[C@H](O)C(=O)N[C@@H]1C[C@H](N)[C@@H](O[C@H]2O[C@H](CN)CC[C@H]2N)[C@H](O)[C@H]1O[C@H]1O[C@H](CO)[C@@H](O)[C@H](N)[C@H]1O [arbekacin]
PPB (fb) [1]: 0.08

COc1ccc2ccccc2c1C(=O)NC1C(=O)N2C1SC(C)(C)C2C(=O)O (stereo not shown) [penicillin67]
PPB (fb) [2]: 0.8

Nc1nnc(-c2cccc(Cl)c2Cl)c(N)n1 [lamotrigine]
PPB (fb) [2]: 0.55

COc1cc(Cc2cnc(N)nc2N)c2c(c1OC)OC(C1CC1)C=C2 (stereo not shown) [iclaprim]
PPB (fb) [2]: 0.93

NCCCC[C@H](N[C@@H](CCc1ccccc1)C(=O)O)C(=O)N1CCC[C@H]1C(=O)O [Lisinopril]
PPB (fb) [3]: 0.05

C#C[C@]1(O)CC[C@H]2[C@@H]3CCc4cc(OC)ccc4[C@H]3CC[C@@]21C [mestranol]
PPB (fb) [2]: 0.98

CN1[C@@H]2CC[C@H]1C[C@@H](OC(=O)c1c[nH]c3ccccc13)C2 [tropisetron]
PPB (fb) [3]: 0.7

CN(Cc1cnc2nc(N)nc(N)c2n1)c1ccc(C(=O)N[C@@H](CCC(=O)O)C(=O)O)cc1 [Methotrexate]
PPB (fb) [3]: 0.58

CCn1cc(C(=O)O)c(=O)c2cc(F)c(N3CCNCC3)nc21 [Enoxacin]
PPB (fb) [3]: 0.26

C[C@@H](NCCCc1cccc(C(F)(F)F)c1)c1cccc2ccccc12 [Cinacalcet hydrochloride]
PPB (fb) [1]: 0.95

nafarelin
PPB (fb) (plasma): 0.8

CCCCNc1cc(C(=O)O)cc(S(N)(=O)=O)c1Oc1ccccc1 [Bumetanide]
PPB (fb) [3]: 0.96

Fluorescein
PPB (fb) (plasma): 0.87

CC(Oc1cc(Cl)cc(Cl)c1)C(=O)NC1C(=O)N2C1SC(C)(C)C2C(=O)O (stereo not shown) [penicillin59]
PPB (fb) [2]: 0.97

CCN(CC)CCNC(=O)c1ccc(NC(C)=O)cc1 [Acecainide (N-acetylprocainamide)]
PPB (fb) [3]: 0.1

Cc1cc2c(OCC(O)CNC(C)C)cccc2[nH]1 (stereo not shown) [mepindolol]
PPB (fb) [2]: 0.5

C[C@@H](O)[C@H]1C(=O)N2C(C(=O)O)=C(S[C@@H]3CN[C@H](C(=O)N(C)C)C3)[C@H](C)[C@H]12 [Meropenem]
PPB (fb) [3]: 0.08

COc1cc(N)c(Cl)cc1C(=O)NC1CCN(CCCOc2ccc(F)cc2)CC1OC (stereo not shown) [cisapride]
PPB (fb) [1]: 0.98

CN[C@@H](C)Cc1ccccc1 [Methamphetamine]
PPB (fb) (plasma): 0.15

cefotiam
PPB (fb) (plasma): 0.4

CC(=O)N[C@H](Cc1ccc2ccccc2c1)C(=O)N[C@H](Cc1ccc(Cl)cc1)C(=O)N[C@H](Cc1cccnc1)C(=O)N[C@@H](CO)C(=O)N[C@@H](Cc1ccc(O)cc1)C(=O)N[C@H](CCCNC(N)=O)C(=O)N[C@@H](CC(C)C)C(=O)N[C@@H](CCCNC(=N)N)C(=O)N1CCC[C@H]1C(=O)N[C@H](C)C(N)=O [Cetrorelix] (Ac-[d2Nal][dPhe(4-Cl)][d3Pal]SY[dCit]LRP[dA]-NH2)
PPB (fb) (human, plasma): 0.86

CN[C@H]1CC[C@@H](c2ccc(Cl)c(Cl)c2)c2ccccc21 [sertraline]
PPB (fb) [1]: 0.98

Clc1cccc(Cl)c1N=C1NCCN1 [Clonidine]
PPB (fb) [3]: 0.34

COc1cccc(OC)c1C(=O)N[C@@H]1C(=O)N2[C@@H]1SC(C)(C)[C@@H]2C(=O)O [Methicillin]
PPB (fb) [3]: 0.48

CC(=O)[C@H]1CC[C@H]2[C@@H]3CCC4=CC(=O)CC[C@]4(C)[C@H]3CC[C@]12C [progesterone]
PPB (fb) [1]: 0.97

COc1ccc(-n2cc(C(=O)O)c(=O)c3cc(F)c(N4CCNCC4)cc32)cc1 [5c(p-OCH3)]
PPB (fb) [1]: 0.31

CC1(C)SC2C(NC(=O)C(NC(=O)c3ccccn3)c3ccccc3)C(=O)N2C1C(=O)O (stereo not shown) [penicillin36]
PPB (fb) [2]: 0.63

CCN(CC)CCCN(c1ccccc1)C1Cc2ccccc2C1 [aprindine]
PPB (fb) [1]: 0.95

CC1(C)S[C@@H]2[C@H](/N=C/N3CCCCCC3)C(=O)N2[C@H]1C(=O)O [amdinocillin]
PPB (fb) [1]: 0.14

COCC(=O)Nc1c(I)c(C(=O)NCC(O)CO)c(I)c(C(=O)N(C)CC(O)CO)c1I (stereo not shown) [Iopromide]
PPB (fb) [3]: 0.01

O=C(CCCN1CC=C(n2c(=O)[nH]c3ccccc32)CC1)c1ccc(F)cc1 [droperidol]
PPB (fb) [2]: 0.95

Brotizolam
PPB (fb) (plasma): 0.9

Nc1ccc(O)c(C(=O)O)c1 [Aminosalicylic acid__ 5-]
PPB (fb) [3]: 0.61

CCc1oc2ccccc2c1C(=O)c1cc(Br)c(O)c(Br)c1 [benzbromarone]
PPB (fb) [1]: 0.99

Cc1onc(-c2ccccc2)c1C(=O)N[C@@H]1C(=O)N2[C@@H]1SC(C)(C)[C@@H]2C(=O)O [Oxacillin]
PPB (fb) [3]: 0.92

Clevidipine
PPB (fb) (plasma): 1

CN(C)CCc1c[nH]c2ccc(C[C@H]3COC(=O)N3)cc12 [Zolmitriptan]
PPB (fb) [2]: 0.25

O=C(O)c1cc(O)c(O)c(O)c1 [gallic acid]
PPB (fb) (plasma): 0.32

COc1ccc(C(=O)N2CCCC2=O)cc1 [aniracetam]
PPB (fb) [1]: 0.66

Cc1ccc(C(N)C(=O)NC2C(=O)N3C2SC(C)(C)C3C(=O)O)cc1 (stereo not shown) [penicillin27]
PPB (fb): 0.6

Cc1c(C(C)C)c(=O)n(-c2ccccc2)n1C [propyphenazone]
PPB (fb) [2]: 0.1

Clc1ccc2c(c1)C(c1ccccc1)=NCc1nncn1-2 [estazolam]
PPB (fb) (plasma): 0.93

CN1CCc2c(c3ccccc3n2Cc2ccccc2)C1 [mebhydrolin]
PPB (fb) [2]: 0.04

COc1cc(/C=C/C(=O)O)ccc1O [ferulic acid]
PPB (fb) [2]: 0.73

C/C=C/C[C@@H](C)C(=O)[C@H]1C(=O)N[C@@H](C(C)C)C(=O)N(C)CC(=O)N(C)[C@@H](CC(C)C)C(=O)N[C@@H](C(C)C)C(=O)N(C)[C@@H](CC(C)C)C(=O)N[C@@H](C)C(=O)N[C@H](C)C(=O)N(C)[C@@H](CC(C)C)C(=O)N(C)[C@@H](CC(C)C)C(=O)N(C)[C@@H](C(C)C)C(=O)N1C [Valspodar]
PPB (fb) [2]: 0.98

CC(Oc1ccccc1)C(=O)NC1C(=O)N2C1SC(C)(C)C2C(=O)O (stereo not shown) [penicillin48]
PPB (fb) [2]: 0.82

CC[C@H]1OC(=O)[C@H](C)[C@@H](O[C@H]2C[C@@](C)(OC)[C@@H](O)[C@H](C)O2)[C@H](C)[C@@H](O[C@@H]2O[C@H](C)C[C@H](N(C)C)[C@H]2O)[C@](C)(O)C[C@@H](C)/C(=N\OCOCCOC)[C@H](C)[C@@H](O)[C@]1(C)O [roxithromycin]
PPB (fb) [1]: 0.78

CCC(=O)O[C@@H](O[P@](=O)(CCCCc1ccccc1)CC(=O)N1C[C@H](C2CCCCC2)C[C@H]1C(=O)O)C(C)C [fosinopril]
PPB (fb) [2]: 0.95

COC(C(=O)NC1C(=O)N2C1SC(C)(C)C2C(=O)O)c1ccc(Cl)c(Cl)c1 (stereo not shown) [penicillin56]
PPB (fb) [2]: 0.95

CC[C@@H](C(N)=O)N1CCCC1=O [levetiracetam]
PPB (fb) [2]: 0.05

Cc1nc(NS(=O)(=O)c2ccc(N)cc2)oc1C [sulfamoxole]
PPB (fb) [2]: 0.7

CN(C)CCC=C1c2ccccc2C=Cc2ccccc21 [cyclobenzaprine]
PPB (fb) [1]: 0.93
